According to ChEMBL document CHEMBL2046364, “Synthesis and evaluation of novel 3a,9a-dihydro-1-ethoxycarbonyl-1-cyclopenteno[5,4-b]benzopyran-4-ones as antifungal agents” (2012):
In brackets after ≈: the same amount, converted by molar mass.

What was measured:
Format in all cases: functional
Aspergillus niger = test: Antifungal activity against Aspergillus niger MTCC 2642 by spectrophotometry based assay
Saccharomyces cerevisiae = test: Antifungal activity against Saccharomyces cerevisiae MTCC 1344 by spectrophotometry based assay
Candida albicans = test: Antifungal activity against Candida albicans MTCC 3018 by spectrophotometry based assay
[1] = Antifungal activity against Epidermophyton MTCC 613 by spectrophotometry based assay
[2] = Antifungal activity against Cryptococcus gastricus MTCC 1715 by spectrophotometry based assay; conditions: Goffeauzyma gastrica

Compound	MIC (Aspergillus niger) [µg/mL]	MIC (Saccharomyces cerevisiae) [µg/mL]	MIC (Candida albicans) [µg/mL]	MIC [1] [µg/mL]	MIC [2] [µg/mL]
OC(Cn1cncn1)(Cn1cncn1)c1ccc(F)cc1F [FLUCONAZOLE]	1.5 (≈ 4.9 µM)	1.5 (≈ 4.9 µM)	3.12 (≈ 10.2 µM)	6.25 (≈ 20.4 µM)	6.25 (≈ 20.4 µM)
CCOC(=O)C1=CC[C@H]2C(=O)c3ccccc3O[C@H]12	25 (≈ 96.8 µM)	50 (≈ 194 µM)	25 (≈ 96.8 µM)	> 100	–
CCOC(=O)C1=CC[C@H]2C(=O)c3cc(F)ccc3O[C@H]12	> 100	25 (≈ 90.5 µM)	–	> 100	–
CCOC(=O)C1=CC[C@H]2C(=O)c3ccc(Br)cc3O[C@H]12	100 (≈ 297 µM)	100 (≈ 297 µM)	–	–	–
CCOC(=O)C1=CC[C@H]2C(=O)c3ccc(F)cc3O[C@H]12	12.5 (≈ 45.2 µM)	12.5 (≈ 45.2 µM)	25 (≈ 90.5 µM)	50 (≈ 181 µM)	100 (≈ 362 µM)
CCOC(=O)C1=CC[C@H]2C(=O)c3cccc(Cl)c3O[C@H]12	12.5 (≈ 42.7 µM)	12.5 (≈ 42.7 µM)	50 (≈ 171 µM)	50 (≈ 171 µM)	> 100
CCOC(=O)C1=CC[C@H]2C(=O)c3cc(Cl)ccc3O[C@H]12	12.5 (≈ 42.7 µM)	> 100	50 (≈ 171 µM)	–	–
CCOC(=O)C1=CC[C@H]2C(=O)c3cc(Br)ccc3O[C@H]12	50 (≈ 148 µM)	50 (≈ 148 µM)	–	–	–
CCOC(=O)C1=CC[C@H]2C(=O)c3ccc(Cl)cc3O[C@H]12	25 (≈ 85.4 µM)	25 (≈ 85.4 µM)	50 (≈ 171 µM)	–	–
CCOC(=O)C1=CC[C@H]2C(=O)c3cc(C)ccc3O[C@H]12	> 100	> 100	–	> 100	–
CCOC(=O)C1=CC[C@H]2C(=O)c3cc(F)c(Cl)cc3O[C@H]12	100 (≈ 322 µM)	25 (≈ 80.5 µM)	> 100	–	–
